{
  "source": "patent US20180339066A1",
  "about": "“Methods and Compositions for Enhancing Transduction Efficiency of Retroviral Vectors” (The Scripps Research Institute, priority 2013, published 2018)",
  "key": {"[1]": {"system": "human cord blood CD34+ cells", "assay": "HIV-1 based lentiviral vector transduction of cord blood CD34+ cells, GFP by flow cytometry", "format": "cell-based", "settings": "for transduction efficiency: added with vector or delayed by 2 or 6 hours"}, "[2]": {"system": "NSG-repopulating cells", "assay": "NSG mouse reconstitution with transduced cord blood CD34+ cells (long-term engraftment)", "format": "in vivo, human", "experimental": "(§1) Colony forming assay, NSG mouse reconstitution, and serial transplantation. For colony forming assays, transduced cord blood CD34^+ HSPCs were counted and 100 cells were seeded in 1.5 ml methocult4434 (StemCell Technologies) in 30 mm dishes in triplicate. Total BFU-E, CFU-GM, CFU-M, and CFU-GEMM colonies, as well as GFP+ colonies, were counted 16-18 days after plating using a fluorescent microscope. […] Mice were bled every 4 weeks starting from 8 weeks post injection, and sacrificed at 19 weeks to assess engraftment and GFP expression in the bone marrow, spleen, and thymus by flow cytometry. For serial transplantation, primary recipients were sacrificed at 12 weeks post injection, and bone marrow cells from both femurs of one mouse were injected into two irradiated secondary recipients, which were again sacrificed at 12 weeks post injection for flow cytometric analysis of bone marrow and spleen. NSG mice were maintained at the Scripps Research Institute Molecular and Experimental Medicine animal facility.\nTo determine whether primitive HSCs in the heterogeneous CD34^+ population are transduced in the presence of rapamycin, we tested the ability of transduced cord blood CD34^+ cells to engraft irradiated NSG mice. A fraction of transduced cells was assessed in parallel liquid culture and colony forming assays. […] Mice were sacrificed 19 weeks after injection to assess long-term engraftment. […] This four-fold transduction enhancement in NSG-repopulating cells was more pronounced than in parallel liquid culture or CFU assay (FIG. 2C), indicating preferential transduction of primitive HSCs in the presence of rapamycin."}, "[3]": {"system": "cord blood CD34+ cells", "assay": "Colony forming assay and parallel liquid culture of transduced cord blood CD34+ cells", "format": "cell-based, human", "settings": "stimulated cord blood CD34+ cells, MOI=25", "experimental": "as §1\nTo determine whether primitive HSCs in the heterogeneous CD34^+ population are transduced in the presence of rapamycin, we tested the ability of transduced cord blood CD34^+ cells to engraft irradiated NSG mice. A fraction of transduced cells was assessed in parallel liquid culture and colony forming assays. […]"}, "[4]": {"system": "human cord blood CD34+ cells", "assay": "Integrase-defective lentiviral vector (IDLV) transduction of cord blood CD34+ cells", "settings": "MOI=50, two days after transduction", "description": "Human cord blood CD34^+ cells were stimulated for 24 h and transduced with IDLVs, MOI=50, with or without 10 ng/μl rapamycin. GFP expression was assayed by flow cytometry every three days from 2-14 days post transduction. Data represent mean and standard deviation of independent transductions of two separate donors.\nCord blood CD34^+ cells were transduced with IDLVs in the absence or presence of rapamycin, and GFP expression was followed from 2-14 days post transduction."}, "[5]": {"system": "primitive HSCs (serial repopulating cells)", "assay": "Serial NSG mouse transplantation of transduced cord blood CD34+ cells", "format": "in vivo, human", "experimental": "as §1\nTo stringently establish transduced cells as primitive HSCs, we carried out serial NSG mouse transplantation with cord blood CD34^+ cells transduced with or without rapamycin. […] Bone marrow cells of secondary recipients were again analyzed 12 weeks post injection."}, "[6]": {"system": "p21 mRNA", "assay": "p21 mRNA quantification by RT-PCR", "settings": "cord blood CD34+ cells, 20 μg/ml rapamycin, 6 hours"}, "[7]": {"system": "stimulated cord blood CD34+ cells", "assay": "Quantification of HIV-1 reverse transcription products by qPCR", "settings": "MOI=25, 20 μg/ml rapamycin", "description": "Quantification of HIV-1 reverse transcription products. Stimulated cord blood CD34^+ cells (2-3E5) were transduced with an MOI of 25 in the presence of 20 μg/ml rapamycin or DMSO, and harvested at 6, 12, or 24 hours after the start of transduction by freezing cell pellets at −80° C. Total DNA was extracted using the QiaAmp DNA mini kit, and treated with Dpnl for 2-4 hours to eliminate plasmid DNA. Quantitative PCR was carried out on the Roche LightCycler 480 using previously published primer and probe sequences (Prasad et al., HIV Protocols: Second Edition 485, 2009)."}, "[8]": {"settings": "NSG mice, 19 weeks after injection"}},
  "data": [
    {"smiles": "Cn1cnc(N)c2ncnc1-2", "note": "[3-methyadenine, 3-methyladenine]", "values": [
      {"measurement": "GFP expression", "setting": "[1]; autophagosome formation inhibited during transduction", "result": "decreased"}
    ]},
    {"smiles": "CCC(=O)N1CCN(c2ccc(-n3c(=O)ccc4cnc5ccc(-c6cnc7ccccc7c6)cc5c43)cc2C(F)(F)F)CC1", "note": "[Torin 1]", "values": [
      {"measurement": "in vitro transduction efficiency relative to DMSO control", "setting": "[1]; 5 μM", "result": "enhanced"},
      {"measurement": "transduction enhancement compared with rapamycin", "setting": "[1]; 5 μM", "result": "comparable"}
    ]},
    {"smiles": "CO/C1=C\\C(C)=C\\[C@@H](C)[C@@H](O)[C@@H](C)C/C(C)=C/C=C/[C@H](OC)[C@@H]([C@@H](C)[C@@H](O)[C@H](C)[C@@]2(O)C[C@@H](O)[C@H](C)[C@@H](C(C)C)O2)OC1=O", "note": "[bafilomycin Al]", "values": [
      {"measurement": "transduction efficiency", "setting": "[1]", "result": "decreased"}
    ]},
    {"smiles": "CCN(CC)CCCC(C)Nc1ccnc2cc(Cl)ccc12", "note": "(stereo not shown) [chloroquine]", "values": [
      {"measurement": "transduction efficiency", "setting": "[1]", "result": "decreased"}
    ]},
    {"smiles": "CO[C@H]1C[C@@H]2CC[C@@H](C)[C@@](O)(O2)C(=O)C(=O)N2CCCC[C@H]2C(=O)O[C@H]([C@H](C)C[C@@H]2CC[C@@H](O)[C@H](OC)C2)CC(=O)[C@H](C)/C=C(\\C)[C@@H](O)[C@@H](OC)C(=O)[C@H](C)C[C@H](C)/C=C/C=C/C=C/1C", "note": "[rapamycin]", "values": [
      {"measurement": "GFP positivity in human CD45+ cells in mouse bone marrow", "setting": "[2]; 20 μg/ml rapamycin during transduction, 19 weeks, control 20%", "result": 80, "unit": "%"},
      {"measurement": "long-term engraftment ability of CD34+ cells", "setting": "[2]; [8]", "result": "did not impair"},
      {"measurement": "reconstitution levels in bone marrow vs control", "setting": "[2]; [8]", "result": "not statistically different"},
      {"measurement": "efficiency or proportion of colony formation", "setting": "[3]", "result": "did not significantly affect"},
      {"measurement": "increase in percentage of GFP expressing cells", "setting": "[4]", "result": 17, "unit": "%"},
      {"measurement": "gene marking frequency relative to other known methods of treatment", "setting": "[5]; human hematopoietic stem cells", "result": "4-5 fold"},
      {"measurement": "EGFP-marked human cell populations in secondary recipients", "setting": "[5]; secondary mouse recipients", "result": "> 90", "unit": "%"},
      {"measurement": "up-regulation in p21 mRNA", "setting": "[6]", "result": "3-5 fold"},
      {"measurement": "increase in per cell amount of 2-LTR circles", "setting": "[7]", "result": "2-to-3 fold"},
      {"measurement": "increase in per cell amount of viral full-length DNA", "setting": "[7]", "result": "2-to-3 fold"},
      {"measurement": "GFP positivity (percentage of GFP-expressing cells)", "setting": "[1]; pre-stimulated cord blood CD34+ cells, rapamycin present during transduction, 11-14 days in culture, control 40%", "result": 80, "unit": "%"}
    ]}
  ]
}
